The target of one test is CYP2C8 (Homo sapiens, UniProt P10632). Briefly: CYP inhibition. The test is classed as in vitro ADME.
The subject of test [1] is MV-4-11 NRAS G12D Clone 4. Briefly: Growth inhibition of NRAS G12D clone. It counts as cell-based, human. Particulars: Homo sapiens, MV4-11; MV-4-11 NRAS G12D, high expression; mean ± SEM; read-out: GI50 (nM) Clone 4. The protocol:
(§1) MV-4-11 cells expressing NRAS^G12D were prepared by transduction with a lentiviral vector encoding the NRAS^G12D mutation. Assays using a panel of parental Ba/F3 into which an additional copy of either WT or a mutant form of FLT3 was introduced were performed at Kyinno Biotechnology Co., Ltd. All cell lines were short tandem repeat authenticated at ATCC or at DSMZ when originally obtained, and no further authentication was done after receipt of the cells in the laboratory.
(§2) Assays using Ba/F3 cells expressing WT and mutant forms of FLT3 were performed by Kyinno Biotechnology. The cells were cultured in the medium recommended by the source for each cell line. Growth inhibition assays were performed using either Cell Titer 96 Aqueous One Solution Cell Proliferation assay (Promega, # G3581) or CCK8 (Dojindo, # CK-04). […] IC50 values were determined from growth inhibition curves fitted using GraphPad Prism and a nonlinear regression model with sigmoidal dose response. Unless otherwise indicated, data are presented as mean ± SEM.

The subject of test [2] is MV-4-11 NRAS G12D Clone 15. Briefly: Growth inhibition of NRAS G12D clone. The test is classed as cell-based, human. The protocol: as §1, §2
For test [3], the system named is MV-4-11 NRAS G12D Clone 1. Kind of test: Growth inhibition of NRAS G12D clone. It counts as cell-based, human. The protocol:
as §1, §2

The mark [4] stands for this setting: 13 to […]-fold increase in NRAS G12D expression.
Where [5] appears, read: Homo sapiens, MV4-11, MV-4-11 NRAS G12D, mean ± SEM.

Molecules are shown by their SMILES.

Broadly, the Ki is the equilibrium dissociation constant of an inhibitor or competing ligand from its target. High values mean lower affinity, low ones higher affinity. As a reminder, the GI50 is the concentration that inhibits growth by half.

Sequence of CYP2C8 (P10632 whole entry): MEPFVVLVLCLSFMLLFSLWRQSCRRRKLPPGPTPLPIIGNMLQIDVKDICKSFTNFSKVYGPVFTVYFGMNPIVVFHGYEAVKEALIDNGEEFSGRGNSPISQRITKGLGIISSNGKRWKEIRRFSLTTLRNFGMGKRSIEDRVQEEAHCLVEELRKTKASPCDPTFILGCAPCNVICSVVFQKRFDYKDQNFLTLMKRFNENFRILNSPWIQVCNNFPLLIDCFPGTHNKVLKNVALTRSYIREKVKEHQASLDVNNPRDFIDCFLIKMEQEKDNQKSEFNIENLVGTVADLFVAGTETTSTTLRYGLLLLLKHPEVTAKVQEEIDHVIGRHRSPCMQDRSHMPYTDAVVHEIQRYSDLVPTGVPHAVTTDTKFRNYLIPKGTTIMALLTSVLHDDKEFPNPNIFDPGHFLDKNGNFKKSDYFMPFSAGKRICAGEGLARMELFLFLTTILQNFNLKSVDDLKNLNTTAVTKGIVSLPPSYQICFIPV

Consider `Cc1ccc2c(-c3nc(Nc4cc(CN5C[C@@H](C)N[C@@H](C)C5)cc(C5CC5)c4)ncc3Cl)c[nH]c2c1` [TUS, Tuspetinib], for which the Ki at CYP2C8 was below 1000 nM. The concentration for 50% growth inhibition (GI50) in test [1] was 69.9 ± 7.4 nM; in test [2] (setting [5]), 7.7 ± 3.1 nM; in test [3] (setting [5]), 8.7 ± 3 nM. Besides, the “change in sensitivity, clone 15” value in test [2] (setting [4]) is “did not alter sensitivity”. In test [3] (setting [4]), the “change in sensitivity, clone 1” value is given as “did not alter sensitivity”.

Values taken from article PMC11725774 (Cancer Research Communications, 2025).
